{"source": "paper PMC3417054", "about": "(Cell host & microbe, 2010)", "key": {"[1]": {"biological_target": "T1, human neutrophils (Homo sapiens, UniProt P25090)", "T1 sequence (P25090 1-351)": "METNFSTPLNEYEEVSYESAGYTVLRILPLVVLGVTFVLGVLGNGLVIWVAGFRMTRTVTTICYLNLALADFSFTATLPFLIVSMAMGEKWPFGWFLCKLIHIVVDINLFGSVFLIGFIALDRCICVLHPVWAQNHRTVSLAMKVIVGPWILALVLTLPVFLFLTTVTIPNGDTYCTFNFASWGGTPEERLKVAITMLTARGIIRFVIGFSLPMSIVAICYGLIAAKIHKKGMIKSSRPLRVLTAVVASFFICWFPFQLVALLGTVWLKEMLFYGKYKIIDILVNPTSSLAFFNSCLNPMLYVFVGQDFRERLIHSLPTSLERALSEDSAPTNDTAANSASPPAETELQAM", "assay": "Ca2+ flux in human neutrophils", "assay_type": "cell-based", "conditions": "37°C; for pEC50, calcium ion flux: human neutrophils, Fluo-3-AM, flow cytometry, means +/- SD of at least three independent experiments, nonlinear regression, 11-18 points"}, "[2]": {"biological_target": "T2, FPR2/ALX-transfected HL60 (Homo sapiens, UniProt P25090)", "T2 sequence (P25090 1-351)": "T1 sequence (P25090 1-351)", "assay": "Ca2+ flux in FPR2/ALX-transfected HL60 cells", "assay_type": "cell-based"}, "[3]": {"biological_target": "T1, human neutrophils", "assay": "Neutrophil chemotaxis", "assay_type": "cell-based", "conditions": "3-µm trans-well filter, fluorescence-labeled neutrophils"}, "[4]": {"tested_on": "peritoneal granulocyte infiltration, S. aureus USA300", "assay": "Mouse peritonitis model, S. aureus USA300", "assay_type": "in vivo", "conditions": "WRW4 prior to infection, two-hours infection period"}, "[5]": {"tested_on": "mouse FPR paralog (Fpr-rs2)", "conditions": "ref Karlsson et al., 2006; Onnheim et al., 2008; cited from earlier work"}, "[6]": {"tested_on": "human FPR2/ALX", "conditions": "ref Karlsson et al., 2006; Onnheim et al., 2008; cited from earlier work"}, "[7]": {"tested_on": "mouse neutrophils", "assay": "Ca2+ flux in mouse neutrophils", "assay_type": "cell-based", "conditions": "calcium flux"}, "[8]": {"tested_on": "FPR1-transfected HL60", "assay": "Ca2+ flux in FPR1-transfected HL60 cells", "assay_type": "cell-based, human", "conditions": "62.5-500 nM formylated PSMs, 2 µM non-formylated PSMs; fMLF 20 nM"}, "[9]": {"tested_on": "mice, cows, pigs, dogs, and cats", "conditions": "ref Styrt, 1989; cited from earlier work"}}, "note": "“Also recorded” adds a separate entry of the source."}
{"compound": "CSCC[C@H](N)C(=O)N[C@@H](CCC(=O)O)C(=O)N[C@@H](Cc1ccccc1)C(=O)N[C@H](C(=O)N[C@@H](C)C(=O)N[C@@H](CCCCN)C(=O)N[C@@H](CC(C)C)C(=O)N[C@@H](Cc1ccccc1)C(=O)N[C@@H](CCCCN)C(=O)N[C@@H](Cc1ccccc1)C(=O)N[C@@H](Cc1ccccc1)C(=O)N[C@@H](CCCCN)C(=O)N[C@@H](CC(=O)O)C(=O)N[C@@H](CC(C)C)C(=O)N[C@@H](CC(C)C)C(=O)NCC(=O)N[C@@H](CCCCN)C(=O)N[C@@H](Cc1ccccc1)C(=O)N[C@@H](CC(C)C)C(=O)NCC(=O)N[C@@H](CC(N)=O)C(=O)N[C@@H](CC(N)=O)C(=O)O)C(C)C", "note": "[PSMα3, non-formylated]", "values": [{"measurement": "pEC50, calcium ion flux", "setting": "[1]", "result": "5.19 ± 0.24"}, {"measurement": "EC50", "setting": "[2]", "result": 257, "unit": "nM"}]}
{"compound": "CC[C@H](C)[C@H](NC(=O)[C@H](Cc1c[nH]c2ccccc12)NC(=O)[C@H](CCCCN)NC(=O)[C@@H](NC(=O)[C@H](CC(C)C)NC(=O)[C@H](CC(=O)O)NC(=O)[C@H](CO)NC(=O)[C@@H](NC(=O)[C@@H](NC(=O)[C@H](CO)NC(=O)[C@@H](NC(=O)[C@@H](NC(=O)[C@H](CC(=O)O)NC(=O)[C@H](CCC(N)=O)NC(=O)[C@H](C)NC(=O)[C@@H](N)CCSC)[C@@H](C)CC)[C@@H](C)CC)[C@@H](C)O)[C@@H](C)CC)C(C)C)C(=O)N[C@H](C(=O)N[C@@H](CC(=O)O)C(=O)N[C@H](C(=O)N[C@H](C(=O)N[C@@H](CC(N)=O)C(=O)N[C@@H](CCCCN)C(=O)N[C@@H](Cc1ccccc1)C(=O)N[C@H](C(=O)N[C@@H](CCCCN)C(=O)N[C@@H](CCCCN)C(=O)O)[C@@H](C)O)C(C)C)[C@@H](C)O)[C@@H](C)CC", "note": "[δ-Toxin, non-formylated]", "values": [{"measurement": "pEC50, calcium ion flux", "setting": "[1]", "result": "5.20 ± 0.14"}, {"measurement": "EC50", "setting": "[2]", "result": 479, "unit": "nM"}]}
{"compound": "LESIFRSLLFRVM-NH2 [MMK1]", "values": [{"measurement": "calcium flux activation of FPR2/ALX-transfected HL60", "setting": "[2]; 62.5 nM (formylated PSMα3), 125 nM (formylated PSMα2), 250 nM (formylated δ-toxin, PSM-mec), 500 nM (formylated PSMsα1, α4, β1, β2), 2 µM (non-formylated PSMs), MMK1 10 nM", "result": "responded"}]}
{"compound": "MDFTGVITSIIDLIKTCIQAFG [PSM-mec, formylated]", "values": [{"measurement": "chemotaxis of human neutrophils", "setting": "[3]", "result": "induce chemotaxis"}]}
{"compound": "WRWWWW-NH2 [WRW4]", "values": [{"measurement": "effect on numbers of live bacteria", "setting": "[4]", "result": "no impact"}, {"measurement": "inhibition of mouse FPR paralog Fpr-rs2", "setting": "[5]", "result": "inhibitor"}, {"measurement": "inhibition of human FPR2/ALX", "setting": "[6]", "result": "an inhibitor of human FPR2/ALX"}, {"measurement": "effect of WRW4 on mouse neutrophil stimulation by fMLF", "setting": "[7]; fMLF 500 nM", "result": "not affected"}, {"measurement": "effect of WRW4 on mouse neutrophil stimulation by MMK1 and PSMs", "setting": "[7]; formylated PSMα3 250 nM, PSMα2 12.5 nM, δ-toxin 50 nM, MMK1 500 nM", "result": "potent antagonistic effect; also recorded: blocks"}]}
{"compound": "fMLF", "values": [{"measurement": "calcium flux activation of FPR1-transfected HL60", "setting": "[8]", "result": "responded"}, {"measurement": "response to fMLF", "setting": "[9]", "result": "hardly respond"}]}
{"compound": "pertussis toxin", "values": [{"measurement": "effect of pertussis toxin on PSM-induced calcium flux", "setting": "[1]; PTX 1 µg/ml, three hours, 5% CO2", "result": "sensitive; also recorded: blocked"}]}
